In patent US20220267753A1, “RATIONAL THERAPEUTIC TARGETING OF ONCOGENIC IMMUNE SIGNALING STATES IN MYELOID MALIGNANCIES VIA THE UBIQUITIN CONJUGATING ENZYME UBE2N” (CHILDREN'S HOSPITAL MEDICAL CENTER, priority 2019, published 2022):

What was measured:
[1] = test system: MOLM-13 and THP-1 cells; assay: Immunoblot / qRT-PCR of NF-κB, STAT1 and IRF signaling; format: cell-based, human; details: 2 μM
Procedure: mRNA expression of selected genes was corroborated by quantitative reverse transcriptase PCR (see primer sequences in Table 2) using cDNA with SYBR® Green or Taqman® gene expression assays (Applied Biosystems, Waltham, Mass.) on the StepOnePlus from Applied Biosystems. Abundance of each transcript was calculated using the Pfaffl Method. Actin or GAPDH were used as housekeeping genes.
For immunoblots, total protein lysates were obtained from cells by lysing the samples in cold RIPA buffer (50 mM Tris-HCl, 150 mM NaCl, 1 mM EDTA, 1% Triton X-100 and 0.1% SDS), in the presence of PMSF, sodium orthovanadate, protease and phosphatase inhibitors. After being re-suspended in RIPA, cells were lysed in the cold room with rocking for 15 min. Protein concentration was evaluated by a BCA assay (Pierce, Waltham, Mass.). SDS sample buffer was added to the lysates and the proteins were separated by SDS-polyacrylamide gel electrophoresis, transferred to PVDF or nitrocellulose membranes, and analyzed by immunoblotting. […] Membranes were imaged with Biorad ChemiDoc™ MP and analyzed with Image lab software 6.0.1 (Biorad, Hercules, Calif.) or Image J [67].

[2] = biological target: T1, UBE2N C87S mutant (Homo sapiens, UniProt P61088, C87S); assay: Linear mass spectrometry (MALDI-TOF) analysis of drug binding; details: MALDI-TOF-MS
T1 construct: purchased Genescript
T1 sequence (P61088 whole entry C87S): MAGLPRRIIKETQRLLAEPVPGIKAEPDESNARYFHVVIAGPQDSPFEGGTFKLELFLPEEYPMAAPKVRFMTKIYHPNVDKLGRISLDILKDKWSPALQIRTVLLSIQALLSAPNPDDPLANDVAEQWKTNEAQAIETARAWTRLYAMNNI
Procedure: (§1) Recombinant UBE2N (2 .tg; Life sensors #UB218) in 3 .tl of buffer containing 20 mM Tris-HCl pH 7.4, 10 mM DTT, 10% glycerol, 150 mM NaCl and 0.02% DMSO as well as six samples of 1 .tg UBE2N mixed with 0.2 .tg of UC-764864 or UC-764865 were diluted to 50 ng/uL in 0.1% formic acid (FA) in preparation of MALDI-TOF analysis. Two .tl aliquots from the samples were used to make a 1:5 dilution with MALDI matrix (5 mg/mL sinapic acid in 60% ACN/0.1% formic acid) with 1 .tL spotted onto the target plate for analysis. For UBE2N C87S mutant, recombinant protein was purchased from Genescript. 2 micrograms of protein as well as 3 samples of UBE2N C87S were mixed with 0.4 micrograms of UC-764864 and UC-764865 in 10 microliters of buffer containing 20 mM Tris HCl pH 7.4, 1 mM DTT, 150 mM NaCl and ˜0.01% of DMSO in each sample. All mixtures were brought up to 40 ul by adding 30 ul of 0.1% formic acid (FA). 5 ul aliquots from the samples were used to make a 1:5 dilution with MALDI matrix as described above. All spectra were acquired in Linear Positive Ion Mode on an ABSciex 4800 MALDI-TOF/TOF instrument, with E. coli thioredoxin (11,674.5; MH+ avg) and horse muscle apomyoglobin (15,952.6; MH+ avg) as mass calibration standards. For DSF, all proteins (UBE2N wild type and UBE2N C87S) were used at a final concentration of 5 .tM. SYPRO Orange (Invitrogen 56651, Carlsbad, Calif.) was used at a final concentration of 10× for UBE2N wild type and UBE2N C87S. Experiments were carried out in 20 mM Tris-HCl pH 8, 150 mM NaCl, 1 mM TCEP, and 10% DMSO. UC-764865 was mixed with the proteins at increasing concentrations, each sample was divided into three 25 .tl replicates in 48-well optical plates (Thermo Fisher Scientific 4375816, Waltham, Mass.) and the plate was sealed with optical PCR plate sheet (Thermo Fisher Scientific 4375928). All experiments were performed on a StepOne Real-Time PCR System (Applied Biosystems 4376357, Foster City, Calif.). The temperature was raised in 1° C. increments from 25° C. to 95° C. and fluorescence was measured at 530 nm. Derivative Tm was determined using Protein Thermal Shift Software version 1.3 by Applied Biosystems and then were analyzed with Prism 6 (GraphPad Software Inc.).

[3] = biological target: T2, UBE2N wild type (Homo sapiens, UniProt P61088); assay: as above; details: MALDI-TOF-MS, incubated with compound
T2 construct: purchased Life sensors UB218
T2 sequence (P61088 1-152): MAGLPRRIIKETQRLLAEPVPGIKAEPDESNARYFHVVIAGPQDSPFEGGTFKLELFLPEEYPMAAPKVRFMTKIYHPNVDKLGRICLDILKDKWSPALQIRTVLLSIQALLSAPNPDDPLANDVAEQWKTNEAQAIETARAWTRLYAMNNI
Procedure: as §1

[4] = In vivo toxicity study; details: 4 doses of 25 mg/kg over 2 weeks, mice
Procedure: PK studies of UC-764864 and UC-764865 were performed in C57BL/6 mice (18-22 g). 10 mg/kg and 20 mg/kg UC-764864 or UC-764865 was administered through intraperitoneal (i.p.) injection. After dosing, blood samples were collected at 15 min, 30 min, 1 h, 2 h, 4 h, 8 h, 12 h, and 24 h. Samples from three animals were collected at each time point. Approximately 500 μL of blood was collected via orbital vein from each mouse, processed, and analyzed by LC-MS. Standard curves were prepared in blood covering the concentration range of 50-3,0000 ng/mL. Using the data from the standard curves, calibration curves were generated for PK tests. For in vivo toxicity studies, 25 mg/kg UC-764864, UC-764865, 10 mg/kg NSC697923 or vehicle control (methocel 0.5% tween-20 0.2%,0.1% DMSO in water) were administered in B6.SJL-Ptprca Pepcb/BoyJ mice (n=3/group) through i.p. injection. For 2 weeks the mice received 4 doses of each compound. Routine body weight and blood counts were performed. At the end of the study, tissues were harvested, placed in 10% buffered formalin, stained with hematoxylin and eosin (H&E) and examined by a pathologist.

SMILES | baseline NF-κB, STAT1, IRF7 and IRF1 activity in UBE2N-dependent AML cells [1] | binding to recombinant UBE2N(C87S) (mass shift) [2] | mass shift of wild-type UBE2N protein [3] [Da] | body weight, hematologic blood parameters, survival [4] | histological evaluation of several tissues [4] | tolerability after repeated administration [4]
CCc1ccc(C(=O)C=CSc2nc3ccc(C)cc3[nH]2)cc1 [UC-764864, 1-(4-ethylphenyl)-3-[(6-methyl-1H-benzimidazol-2-yl)sulfanyl]prop-2-en-1-one] | inhibition | does not bind | 160 |  |  | 
COc1ccc(C(=O)C=CSc2nc3ccc(C)cc3[nH]2)cc1 [UC-764865, 1-(4-methoxyphenyl)-3-[(6-methyl-1H-benzimidazol-2-yl)sulfanyl]prop-2-en-1-one] |  | does not bind | 160 | did not significantly affect | no evidence of overall tissue toxicity | no abnormalities noted
